# Results from patent publication US20230117034A1, “PYRAZOLOTRIAZINES” (Bayer Aktiengesellschaft, priority 2019, published 2023).
# Columns and labels:
# [1] = target: T1, CDK12 (nuclear staining in CAL-120 cells) (Homo sapiens, UniProt Q9NYV4); experiment: CDK12 nuclear protein level: immunofluorescence/high content analysis (CAL-120); type: cell-based
# T1 construct: endogenous in cells; host or cells: CAL-120 human breast cancer cells (DSMZ ACC 459)
# In short: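 CAL-120 cells were treated with compound for 24 h at 37 °C, fixed with PFA and immunostained for CDK12. Nuclear CDK12 intensity was quantified by automated image analysis and normalized to DMSO and control. DC50 is the concentration giving 50% reduction of nuclear staining.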
# [2] = target: T2, CDK2/CycE (Homo sapiens, UniProt P24941); experiment: CDK2/CycE kinase assay (TR-FRET, 2 mM ATP); type: biochemical; conditions: 2 mM ATP (high ATP); median; read-out: CDK2/CyclinE, 2 mM ATP (high ATP), IC50 (median)
# T2 construct: purchased ProQinase GmbH (Freiburg, Germany); host or cells: insect cells (Sf9)
# In short: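 GST-tagged human CDK2 and CycE from Sf9 cells, about 10 ng/ml, pre-incubated 15 min at 22 °C with compound in Tris/HCl pH 8.0 buffer. Reaction with 2 mM ATP and 0.75 µM biotinylated peptide for 25 min at 22 °C. Phospho-RB antibody TR-FRET (665/620 nm ratio) read after 1 h; data normalised to no-inhibitor and no-enzyme controls.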
# T1 sequence (Q9NYV4 whole entry): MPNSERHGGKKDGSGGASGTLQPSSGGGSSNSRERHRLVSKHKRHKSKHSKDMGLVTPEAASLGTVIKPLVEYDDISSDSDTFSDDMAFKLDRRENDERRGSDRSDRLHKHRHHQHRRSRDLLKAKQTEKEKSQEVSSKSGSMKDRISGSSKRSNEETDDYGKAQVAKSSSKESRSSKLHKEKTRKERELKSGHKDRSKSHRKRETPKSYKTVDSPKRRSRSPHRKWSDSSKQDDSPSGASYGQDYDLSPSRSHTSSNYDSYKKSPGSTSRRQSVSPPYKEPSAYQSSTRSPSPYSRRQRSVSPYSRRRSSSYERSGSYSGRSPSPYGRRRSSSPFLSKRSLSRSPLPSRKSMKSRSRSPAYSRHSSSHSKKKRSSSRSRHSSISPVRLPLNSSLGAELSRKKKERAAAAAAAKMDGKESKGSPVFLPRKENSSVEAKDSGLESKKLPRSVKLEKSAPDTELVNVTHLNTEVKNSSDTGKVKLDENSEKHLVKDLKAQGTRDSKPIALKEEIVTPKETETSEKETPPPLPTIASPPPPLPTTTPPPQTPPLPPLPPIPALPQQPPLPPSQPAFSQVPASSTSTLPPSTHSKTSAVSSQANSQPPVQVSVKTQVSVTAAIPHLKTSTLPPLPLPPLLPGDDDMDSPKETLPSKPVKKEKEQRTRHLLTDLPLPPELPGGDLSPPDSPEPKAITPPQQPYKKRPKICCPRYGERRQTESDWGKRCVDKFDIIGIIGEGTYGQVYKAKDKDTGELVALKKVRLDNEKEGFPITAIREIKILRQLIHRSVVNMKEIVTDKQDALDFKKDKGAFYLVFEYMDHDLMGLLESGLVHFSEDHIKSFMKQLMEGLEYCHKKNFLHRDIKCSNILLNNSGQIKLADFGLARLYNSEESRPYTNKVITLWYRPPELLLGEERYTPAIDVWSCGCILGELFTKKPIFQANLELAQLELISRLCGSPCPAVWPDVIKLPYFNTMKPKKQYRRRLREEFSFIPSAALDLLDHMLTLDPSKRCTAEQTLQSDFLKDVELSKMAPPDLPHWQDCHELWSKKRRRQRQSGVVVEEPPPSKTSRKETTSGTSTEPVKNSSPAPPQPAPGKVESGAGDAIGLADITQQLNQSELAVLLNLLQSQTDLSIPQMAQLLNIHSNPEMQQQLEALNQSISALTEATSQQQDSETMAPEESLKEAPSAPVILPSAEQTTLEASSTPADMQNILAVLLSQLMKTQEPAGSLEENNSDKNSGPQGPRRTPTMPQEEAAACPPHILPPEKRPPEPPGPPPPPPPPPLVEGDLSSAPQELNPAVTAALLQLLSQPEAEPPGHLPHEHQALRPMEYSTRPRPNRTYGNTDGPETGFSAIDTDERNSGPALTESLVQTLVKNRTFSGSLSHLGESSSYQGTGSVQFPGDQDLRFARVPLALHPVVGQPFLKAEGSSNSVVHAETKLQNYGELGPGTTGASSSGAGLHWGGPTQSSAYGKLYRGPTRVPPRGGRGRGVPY
# T1 sequence (O75909 whole entry partner): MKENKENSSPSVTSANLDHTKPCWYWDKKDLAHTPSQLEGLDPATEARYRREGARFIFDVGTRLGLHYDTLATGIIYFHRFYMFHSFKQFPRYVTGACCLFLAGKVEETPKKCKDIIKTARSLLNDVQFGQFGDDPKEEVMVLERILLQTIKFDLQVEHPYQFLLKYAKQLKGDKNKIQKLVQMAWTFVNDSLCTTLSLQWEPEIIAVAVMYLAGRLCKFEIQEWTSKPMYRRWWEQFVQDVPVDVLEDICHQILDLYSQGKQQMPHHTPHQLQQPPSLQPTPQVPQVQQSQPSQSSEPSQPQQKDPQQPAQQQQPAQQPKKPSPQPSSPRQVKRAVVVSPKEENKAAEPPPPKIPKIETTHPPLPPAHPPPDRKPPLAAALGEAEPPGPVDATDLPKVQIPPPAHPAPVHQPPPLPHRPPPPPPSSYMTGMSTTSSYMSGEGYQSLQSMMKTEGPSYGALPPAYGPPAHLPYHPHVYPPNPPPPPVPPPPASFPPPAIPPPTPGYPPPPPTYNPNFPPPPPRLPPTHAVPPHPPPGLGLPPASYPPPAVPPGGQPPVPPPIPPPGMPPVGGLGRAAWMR
structure (smiles),measurement,setting,value
"Fc1ccc(-c2cnn3c(NCc4nc5ccccc5[nH]4)nc(N4CCOCC4)nc23)cc1 [Example 106, N-[(1H-benzimidazol-2-yl)methyl]-8-(4-fluorophenyl)-2-(morpholin-4-yl)pyrazolo[1,5-a][1,3,5]triazin-4-amine]",DC50,"[1]; CAL-120 cells, 24 h, immunofluorescence, 50% reduction of nuclear CDK12 staining intensity, median, read-out: CDK12 degradation IF, DC50- [mol/l] (median)",11.4 nM
same,(IC50 CDK12 high ATP) to (Degradation DC50 CDK12) ratio,"[1]; ratio of IC50 CDK12 high ATP kinase assay to DC50 CDK12 degradation (IF, CAL-120)",>876
same,IC50,[2],> 20000 nM
